Consider seven compounds from PubChem BioAssay (NCI).

Some test systems named below: OVCAR-8 ovarian; ACHN renal; EKVX NSCLC; SN12C renal; NCI-H522 lung; MDA-MB-231 breast; OVCAR-3 ovarian; SNB-75 CNS; A549 NSCLC; TK-10 renal.
Holding throughout (experiment): growth of human tumour cells (NCI), 48 h

SMILES strings stand for the structures. “And” between values parts separate entries of the source, which are not always exact repeats. Equal values may be shown once.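 Cells were grown in 96-well plates and exposed to each compound for 48 hours at five concentrations; endpoints were interpolated linearly between bracketing concentrations, or set to the highest concentration if not reached. GI50: concentration for 50% inhibition of growth. TGI marks complete inhibition of growth.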 Bounds are passed on as bounds.

For the compound `O=C1c2c(O)cccc2C(C(=O)CCCCC(=O)C2c3cccc(O)c3C(=O)c3c(O)cccc32)c2cccc(O)c21`, the GI50 with OVCAR-8 ovarian was 1.53 µM; with ACHN renal it was 2.04 µM; in the assay with EKVX NSCLC, 1.55 µM; in the assay with SN12C renal it was 3.31 µM; in the assay with NCI-H522 lung, 1.25 µM; in the assay on OVCAR-3 ovarian, 1.39 µM. Moreover, the GI50 with SNB-75 CNS is 1.4 µM; in the assay with A549 NSCLC, 1.1 µM; with TK-10 renal, 2.85 µM. Moreover, the TGI in the assay with OVCAR-8 ovarian is 2.16 µM and 5.26 µM; in the assay with ACHN renal, 1.95 µM and 6.17 µM; with EKVX NSCLC it was 1.64 µM and 3.68 µM; in the assay on SN12C renal it was 3.89 µM and 9.64 µM; in the assay with NCI-H522 lung it was 1.07 µM and 2.92 µM; with MDA-MB-231 breast, 0.9 µM. Also, the TGI is 1.3 µM and 2.53 µM in the assay with OVCAR-3 ovarian; 3.44 µM and 3.32 µM in the assay with SNB-75 CNS; 1.06 µM and 2.43 µM in the assay on A549 NSCLC; 3.65 µM and 8.35 µM in the assay on TK-10 renal.
In the case of `CN1C(=O)c2cc(Cl)nc3c(NC(=O)c4cccc(Cl)c4)c(Cl)c(NC(=O)c4cccc(Cl)c4)c1c23`, the GI50 is 2.48 µM in the assay with OVCAR-8 ovarian; 1.72 µM with ACHN renal; 1.85 µM in the assay on EKVX NSCLC; 1.84 µM with SN12C renal; 1.82 µM in the assay with NCI-H522 lung; 2.05 µM in the assay on MDA-MB-231 breast. Also, the GI50 in the assay on OVCAR-3 ovarian was 1.92 µM; in the assay on SNB-75 CNS, 1.45 µM; in the assay with A549 NSCLC, 4.14 µM; in the assay with TK-10 renal it was 2.28 µM. Moreover, the TGI in the assay on OVCAR-8 ovarian is 5.7 µM; with ACHN renal, 3.09 µM; in the assay with EKVX NSCLC, 4.21 µM; in the assay on SN12C renal it was 3.48 µM; in the assay on NCI-H522 lung, 3.75 µM; in the assay on MDA-MB-231 breast it was 4.24 µM. Besides, the TGI came to 3.57 µM with OVCAR-3 ovarian, 2.84 µM in the assay with SNB-75 CNS, 14.8 µM in the assay on A549 NSCLC and 5.84 µM in the assay on TK-10 renal.
`O=C(OCc1ccccc1CN1CCOCC1)c1ccc(Br)cc1`: the TGI in the assay on OVCAR-8 ovarian, in the assay on ACHN renal, in the assay with EKVX NSCLC, in the assay on SN12C renal, in the assay with NCI-H522 lung and in the assay on MDA-MB-231 breast was over 100 µM throughout. The TGI with OVCAR-3 ovarian was 83.2 µM; in the assay with SNB-75 CNS, over 100 µM; in the assay with A549 NSCLC it was over 100 µM; with TK-10 renal, over 100 µM.
Take `CN1CCCC1c1cccnc1.O=C(O)c1ccccc1O.O=C([O-])c1ccccc1[OH2+].O=C([O-])c1ccccc1[OH2+].O=C([O-])c1ccccc1[OH2+].[Mn+2]` (centres undefined): the GI50 was over 100 µM in the assay with OVCAR-8 ovarian; over 100 µM with ACHN renal; over 100 µM in the assay with EKVX NSCLC; over 100 µM in the assay with SN12C renal; 12.1 µM in the assay with NCI-H522 lung; over 100 µM with MDA-MB-231 breast. In addition, the GI50 with OVCAR-3 ovarian was 11.4 µM; with SNB-75 CNS, over 100 µM; in the assay with A549 NSCLC, over 100 µM; in the assay with TK-10 renal, over 100 µM. Also, the TGI in the assay on OVCAR-8 ovarian was over 100 µM; in the assay on ACHN renal, over 100 µM; in the assay on EKVX NSCLC, over 100 µM; in the assay with SN12C renal it was over 100 µM; with NCI-H522 lung, 27.7 µM; in the assay with MDA-MB-231 breast, over 100 µM. In addition, the TGI in the assay with OVCAR-3 ovarian is 39.3 µM; with SNB-75 CNS, over 100 µM; in the assay with A549 NSCLC, over 100 µM; in the assay with TK-10 renal, over 100 µM.
In the case of `COc1ccc(S(=O)(=O)N/N=C/C(=O)O)cc1`, the TGI is 1100 µM in the assay with OVCAR-8 ovarian; 970 µM in the assay with ACHN renal; over 1250 µM in the assay with EKVX NSCLC; 1140 µM in the assay with SN12C renal; 644 µM in the assay with NCI-H522 lung; over 1250 µM with MDA-MB-231 breast. Also, the TGI is 1160 µM in the assay with OVCAR-3 ovarian, over 1250 µM in the assay with SNB-75 CNS, over 1250 µM with A549 NSCLC and over 1250 µM in the assay on TK-10 renal.
As for `Cc1c(C(C)C)cc(OCCO)cc1C(C)C`, the TGI is over 100 µM with OVCAR-8 ovarian; over 100 µM in the assay on ACHN renal; 70.9 µM in the assay on EKVX NSCLC; 93.1 µM in the assay with SN12C renal; 81.5 µM with NCI-H522 lung; 80 µM in the assay with MDA-MB-231 breast. Further, the TGI in the assay with OVCAR-3 ovarian, in the assay on SNB-75 CNS, in the assay with A549 NSCLC and in the assay with TK-10 renal was over 100 µM in each case.
As to `COC(=O)[C@H](Cc1ccccc1)NC(=O)c1csc([C@@H](C[C@H](C(C)C)N(C)C(=O)[C@@H](NC(=O)[C@H]2CCCCN2C)C2CC2)OC(C)=O)n1`, the GI50 was 0.0898 µM in the assay on OVCAR-8 ovarian; 0.15 µM with ACHN renal; 0.119 µM in the assay with EKVX NSCLC; 0.103 µM in the assay with SN12C renal; 0.00654 µM with NCI-H522 lung; 0.0763 µM with MDA-MB-231 breast. In addition, the GI50 in the assay on OVCAR-3 ovarian was 0.0102 µM; in the assay with SNB-75 CNS it was 0.0257 µM; in the assay with A549 NSCLC it was 0.0991 µM; in the assay on TK-10 renal, 0.473 µM. In addition, the TGI in the assay with OVCAR-8 ovarian is over 25 µM; in the assay with ACHN renal, over 25 µM; in the assay with EKVX NSCLC it was over 25 µM; in the assay on SN12C renal, over 25 µM; in the assay with NCI-H522 lung it was 0.3 µM; in the assay with MDA-MB-231 breast it was over 12.5 µM. Besides, the TGI in the assay with OVCAR-3 ovarian is 0.063 µM; in the assay with SNB-75 CNS, over 25 µM; with A549 NSCLC it was over 25 µM; in the assay on TK-10 renal it was over 25 µM.
